Laboratory results: patent publication US7160881B2, “Crystalline modifications of 2-(3,5-bis-trifluoromethyl-phenyl)-N-[6-(1,1-dioxo-1 λ6-thiomorpholin-4-yl)-4-(4-fluoro-2-methyl-phenyl)-pyridin-3-yl]-N-methyl-isobutyramide” (Hoffmann-La Roche Inc., priority 2003, dated 2007)
Where two headings read alike, the source gives them in different places. Values belong to the compound of their own block, whether it stands above or below them.

Key:
[1] = Pharmacokinetics after single oral administration to fed male beagle dogs (plasma concentrations by LC-MS, non-compartmental analysis); format: in vivo; settings: for bioavailability (general statement of the description): A: formulations compared with those of B or C modification, amorphous: in microsuspension form; for concentration at 24 h: read-out: C(24 h); for AUC(0-t): read-out: AUC(0–24 h)
Protocol: Four male beagle dogs (age 5 to 6 years, body weight 11 to 14 kg) received single oral doses of 2 mg/kg of 2-(3,5-bis-trifluoromethyl-phenyl)-N-[6-(1,1-dioxo-1λ^6-thiomorpholin-4-yl)-4-(4-fluoro-2-methyl-phenyl)-pyridin-3-yl]-N-methyl-isobutyramide form A and form B (cross-over study design). The formulation was a granulate of the finely milled compound with 20% sodium dodecyl sulfate (SDS) in gelatine capsules.
In addition, four male beagle dogs (age 4 to 7 years, body weight 11 to 14 kg) received a single oral dose of 2 mg/kg of 2-(3,5-bis-trifluoromethyl-phenyl)-N-[6-(1,1-dioxo-1λ^6-thiomorpholin-4-yl)-4-(4-fluoro-2-methyl-phenyl)-pyridin-3-yl]-N-methyl-isobutyramide form C as finely milled compound with 10% SDS in gelatine capsules. The dogs received 200 g commercial dog chow (Pal®, approx. 7% fat content) about 30 minutes before administration of the compound.
Two dogs (age 8 years, body weight 12 to 14 kg) received 5 mg/kg of 2-(3,5-bis-trifluoromethyl-phenyl)-N-[6-(1,1-dioxo-1λ^6-thiomorpholin-4-yl)-4-(4-fluoro-2-methyl-phenyl)-pyridin-3-yl]-N-methyl-isobutyramide as amorphous material orally by gavage as microsuspension. The dogs were fed before and during the experiment.
Plasma samples were drawn at several time points. 2-(3,5-bis-Trifluoromethyl-phenyl)-N-[6-(1,1-dioxo-1λ^6-thiomorpholin-4-yl)-4-(4-fluoro-2-methyl-phenyl)-pyridin-3-yl]-N-methyl-isobutyramide plasma concentrations were determined using a selective LC-MS method with a quantification limit of 10 ng/mL. Pharmacokinetic parameters (e.g. AUC, Cmax) were estimated by non-compartmental analysis using WinNonlin 3.1®.

[2] = Dynamic Vapor Sorption (DVS); format: physicochemical; settings: from 0 to 90% RH
Description: Dynamic Vapor Sorption (DVS)

[3] = beagle, dog, plasma, po, 5 mg/kg, mean, n=2, single oral 5 mg/kg by gavage as microsuspension, fed dogs
[4] = dog Charly, single oral 2 mg/kg, fed male beagle dog, cross-over, granulate with 20% SDS in gelatine capsules, 2 mg/kg
[5] = dog Lars, single oral 2 mg/kg, fed male beagle dog, cross-over, granulate with 20% SDS in gelatine capsules, 2 mg/kg
[6] = dog Lupo, single oral 2 mg/kg, fed male beagle dog, cross-over, granulate with 20% SDS in gelatine capsules, 2 mg/kg
[7] = dog Mickey, single oral 2 mg/kg, fed male beagle dog, cross-over, granulate with 20% SDS in gelatine capsules, 2 mg/kg
[8] = mean, n=4, single oral 2 mg/kg, fed male beagle dogs, cross-over, granulate with 20% SDS in gelatine capsules, 2 mg/kg
[9] = male, beagle, dog, plasma, po, 2 mg/kg, mean, n=4, single oral 2 mg/kg, fed male beagle dogs, finely milled compound with 10% SDS in gelatine capsules
[10] = single oral 2 mg/kg, fed male beagle dogs
[11] = male, beagle, dog, plasma, po, 2 mg/kg, dog Lars, single oral 2 mg/kg, fed male beagle dog, cross-over, granulate with 20% SDS in gelatine capsules
[12] = male, beagle, dog, plasma, po, 2 mg/kg, mean, n=4, single oral 2 mg/kg, fed male beagle dogs, cross-over, granulate with 20% SDS in gelatine capsules
[13] = single oral 2 mg/kg, fed male beagle dogs, cross-over

Structure (SMILES): Cc1cc(F)ccc1-c1cc(N2CCS(=O)(=O)CC2)ncc1N(C)C(=O)C(C)(C)c1cc(C(F)(F)F)cc(C(F)(F)F)c1 [Example 7, 2-(3,5-Bis-trifluoromethyl-phenyl)-N-[6-(1,1-dioxo-1λ^6-thiomorpholin-4-yl)-4-(4-fluoro-2-methyl-phenyl)-pyridin-3-yl]-N-methyl-isobutyramide]
melting point: 135 to 138 °C

Structure (SMILES): Cc1cc(F)ccc1-c1cc(N2CCS(=O)(=O)CC2)ncc1N(C)C(=O)C(C)(C)c1cc(C(F)(F)F)cc(C(F)(F)F)c1 [amorphous material, 2-(3,5-bis-trifluoromethyl-phenyl)-N-[6-(1,1-dioxo-1λ^6-thiomorpholin-4-yl)-4-(4-fluoro-2-methyl-phenyl)-pyridin-3-yl]-N-methyl-isobutyramide]
bioavailability (general statement of the description) [1]: improved bioavailability
exposure after oral administration (ranking of forms) ([1]; beagle dogs, amorphous as microsuspension): highest
concentration at 24 h ([1]; beagle, dog, plasma, oral, 5 mg/kg, mean, n=2, 5 mg/kg oral microsuspension, values normalized to 2 mg/kg): 49.2 ng/mL
AUC(0-t) ([1]; beagle, dog, plasma, po, 5 mg/kg, mean, n=2, 5 mg/kg oral microsuspension, values normalized to 2 mg/kg): 4160 ng·h/mL
Cmax ([1]; beagle, dog, plasma, po, 5 mg/kg, mean, n=2, 5 mg/kg oral microsuspension, values normalized to 2 mg/kg, read-out: Cmax): 1220 ng/mL
AUC(0-t) [1, 3]: 10400 ng·h/mL
concentration at 24 h [1, 3]: 123 ng/mL
Cmax ([1]; beagle, dog, plasma, po, 5 mg/kg, mean, n=2, single oral 5 mg/kg by gavage as microsuspension, fed dogs, read-out: Cmax): 3050 ng/mL
F ([1]; mean, n=2, 5 mg/kg oral microsuspension, values normalized to 2 mg/kg): 24.5%
reversible uptake of water (DVS) [2]: 0.8 %-w/w

Structure (SMILES): Cc1cc(F)ccc1-c1cc(N2CCS(=O)(=O)CC2)ncc1N(C)C(=O)C(C)(C)c1cc(C(F)(F)F)cc(C(F)(F)F)c1 [Form B, 2-(3,5-bis-trifluoromethyl-phenyl)-N-[6-(1,1-dioxo-1λ^6-thiomorpholin-4-yl)-4-(4-fluoro-2-methyl-phenyl)-pyridin-3-yl]-N-methyl-isobutyramide]
AUC(0–24 h) [1, 4]: 949 ng·h/mL
C(24 h) [1, 4]: 17.7 ng/mL
Cmax [1, 4]: 122 ng/mL
F [1, 4]: 6.3%
AUC(0–24 h) [1, 5]: 3880 ng·h/mL
C(24 h) [1, 5]: 51.7 ng/mL
Cmax [1, 5]: 631 ng/mL
F [1, 5]: 21%
AUC(0–24 h) [1, 6]: 1130 ng·h/mL
C(24 h) [1, 6]: 23.2 ng/mL
Cmax [1, 6]: 216 ng/mL
F [1, 6]: 6.8%
AUC(0–24 h) [1, 7]: 1330 ng·h/mL
C(24 h) [1, 7]: 21.4 ng/mL
Cmax [1, 7]: 251 ng/mL
F [1, 7]: 8.2%
AUC(0–24 h) [1, 8]: 1822 ng·h/mL
C(24 h) [1, 8]: 28.5 ng/mL
Cmax [1, 8]: 305 ng/mL
F [1, 8]: 11.0%

Next, values leading:

AUC(0-t) [1, 9]: 2660 ng·h/mL
concentration at 24 h [1, 9]: 29.2 ng/mL
Cmax ([1]; male, beagle, dog, plasma, po, 2 mg/kg, mean, n=4, single oral 2 mg/kg, fed male beagle dogs, finely milled compound with 10% SDS in gelatine capsules, read-out: Cmax): 510 ng/mL
F ([1]; mean, n=4, single oral 2 mg/kg, fed male beagle dogs, finely milled compound with 10% SDS in gelatine capsules): 13.3%
mean AUC(0–24 h) compared with form A [1, 10]: approximately the same
mean Cmax compared with form A [1, 10]: approximately the same
Structure (SMILES): Cc1cc(F)ccc1-c1cc(N2CCS(=O)(=O)CC2)ncc1N(C)C(=O)C(C)(C)c1cc(C(F)(F)F)cc(C(F)(F)F)c1 [Form C, 2-(3,5-bis-trifluoromethyl-phenyl)-N-[6-(1,1-dioxo-1λ^6-thiomorpholin-4-yl)-4-(4-fluoro-2-methyl-phenyl)-pyridin-3-yl]-N-methyl-isobutyramide]

bioavailability (general statement of the description) [1]: improved bioavailability
bioavailability among the three crystalline polymorphs A, B, and C ([1]; beagle dogs, powder in gelatine capsules containing sodium dodecyl sulfate): highest bioavailability
AUC(0–24 h) [1, 4]: 3720 ng·h/mL
C(24 h) [1, 4]: 47.6 ng/mL
Cmax [1, 4]: 391 ng/mL
F [1, 4]: 24.5%
F [1, 5]: 18.2%
AUC(0–24 h) [1, 6]: 2490 ng·h/mL
F [1, 6]: 16.2%
AUC(0–24 h) [1, 7]: 2900 ng·h/mL
F [1, 7]: 17.4%
AUC(0-t) [1, 11]: 2520 ng·h/mL
concentration at 24 h [1, 11]: 28.2 ng/mL
Cmax ([1]; male, beagle, dog, plasma, po, 2 mg/kg, dog Lars, single oral 2 mg/kg, fed male beagle dog, cross-over, granulate with 20% SDS in gelatine capsules, read-out: Cmax): 744 ng/mL
concentration at 24 h ([1]; male, beagle, dog, plasma, po, 2 mg/kg, dog Lupo, single oral 2 mg/kg, fed male beagle dog, cross-over, granulate with 20% SDS in gelatine capsules): 40.3 ng/mL
Cmax ([1]; male, beagle, dog, plasma, po, 2 mg/kg, dog Lupo, single oral 2 mg/kg, fed male beagle dog, cross-over, granulate with 20% SDS in gelatine capsules, read-out: Cmax): 424 ng/mL
concentration at 24 h ([1]; male, beagle, dog, plasma, po, 2 mg/kg, dog Mickey, single oral 2 mg/kg, fed male beagle dog, cross-over, granulate with 20% SDS in gelatine capsules): 29.8 ng/mL
Cmax ([1]; male, beagle, dog, plasma, po, 2 mg/kg, dog Mickey, single oral 2 mg/kg, fed male beagle dog, cross-over, granulate with 20% SDS in gelatine capsules, read-out: Cmax): 496 ng/mL
AUC(0-t) [1, 12]: 2910 ng·h/mL
concentration at 24 h [1, 12]: 36.5 ng/mL
Cmax ([1]; male, beagle, dog, plasma, po, 2 mg/kg, mean, n=4, single oral 2 mg/kg, fed male beagle dogs, cross-over, granulate with 20% SDS in gelatine capsules, read-out: Cmax): 514 ng/mL
F [1, 8]: 19.1%
Mean Cmax, higher after form A as compared to form B [1, 13]: 1.7 fold
Mean oral bioavailability, higher after form A as compared to form B [1, 13]: 1.9 fold
reversible uptake of water (DVS) ([2]; listed as modification A): 3.1 %-w/w
Structure (SMILES): Cc1cc(F)ccc1-c1cc(N2CCS(=O)(=O)CC2)ncc1N(C)C(=O)C(C)(C)c1cc(C(F)(F)F)cc(C(F)(F)F)c1 [Form A, 2-(3,5-bis-trifluoromethyl-phenyl)-N-[6-(1,1-dioxo-1λ^6-thiomorpholin-4-yl)-4-(4-fluoro-2-methyl-phenyl)-pyridin-3-yl]-N-methyl-isobutyramide]
